Patent US20200138854A1, “Method of Detecting and Quantifying Bile Acid from Saliva” (Ironwood Pharmaceuticals, Inc., priority 2017, published 2020)
Values joined by “and” are separate entries in the source; they are usually repeats but may differ in a detail not shown here. Equal values may be shown once. Each block holds one compound with its values, some of them ahead of it.

Legend:
[1] = Long-term (1 month at −20° C. and −80° C.) stability in untreated human saliva; conditions: for Long-term stability in untreated human saliva: at 80° C. (sic); for % Bias QC-High / Difference from Fresh (%) QC-High / Mean concentration QC-High / Concentration QC-High / Mean at Time Zero, Fresh QCs (Batch 34), QC-High: untreated human saliva; for Concentration QC-High: single determinations; for Concentration after long-term storage / Mean concentration after long-term storage: 1 Month; for Concentration after long-term storage / Mean concentration after long-term storage / % Bias / Difference from Fresh (%) / Fresh QCs (Batch 34) Mean at Time Zero: QC-High; for Concentration after long-term storage: individual values, run 35; for Mean concentration after long-term storage: n 3; for % Bias / Difference from Fresh (%): 1 month
Experimental: For long-term stability in untreated human saliva, samples were prepared by spiking untreated human saliva with each analyte at the QC-Low and QC-High levels. The samples were stored in a −20° C. freezer and in a −80° C. freezer. After 1 month of storage, each sample was extracted in replicates of three for analysis.
A 100-μL aliquot of sample (calibration standards, quality controls, blanks, and stability samples) was transferred into a 96 well plate, according to a pre-defined layout. […] The plates were covered, vortex-mixed and then centrifuged for 5 minutes at 3200 rpm. Supernatants (350 μL each) were transferred into the corresponding wells of a clean 96 well plate and evaporated to dryness under nitrogen in a Turbovap set to 40° C. The dried residue in each well was reconstituted with 75 μL of 50:50 (v:v) methanol:water.

[2] = Frozen (−20° C.) short-term stability in cholestyramine-treated human saliva; conditions: for % Bias QC-LLOQ / Mean concentration QC-LLOQ / Concentration QC-LLOQ / % Bias QC-Mid / Mean concentration QC-Mid / Concentration QC-Mid / % Bias QC-High / Mean concentration QC-High / Concentration QC-High: cholestyramine-treated human saliva; for Concentration QC-LLOQ / Concentration QC-Mid / Concentration QC-High: single determinations; for Mean concentration after frozen (−20° C.) storage: n 4
Experimental: Quality control samples for the evaluation of accuracy and precision and for run acceptance were prepared on the day of sample extraction. QC samples prepared in cholestyramine-treated saliva are to be prepared in small volumes for analysis. Stability for these QC samples would be limited to short-term storage (i.e., 2 days) whereas untreated human saliva would be evaluated for long-term storage.
For stability in cholestyramine-treated human saliva, samples were prepared by spiking cholestyramine-treated human saliva with each analyte at the QC-LLOQ, QC-Low, QC-Mid and QC-High levels. The samples were stored in a −20° C. freezer. After 1 day and 2 days of storage, each sample was extracted in replicates of four for analysis.

[3] = nominal 800 ng/mL, 1 month −20° C. storage
[4] = nominal 800 ng/mL, 1 month −80° C. storage
[5] = nominal 5.00 ng/mL, 1 Day frozen (−20° C.)
[6] = nominal 5.00 ng/mL, 2 Days frozen (−20° C.)
[7] = nominal 80.0 ng/mL, 1 Day frozen (−20° C.)
[8] = nominal 80.0 ng/mL, 2 Days frozen (−20° C.)
[9] = nominal 800 ng/mL, 1 Day frozen (−20° C.)
[10] = nominal 800 ng/mL, 2 Days frozen (−20° C.)
[11] = −20° C. Storage, nominal 80.0 ng/mL
[12] = −80° C. Storage, nominal 80.0 ng/mL
[13] = nominal 80.0 ng/mL, 1 month −20° C. storage
[14] = nominal 80.0 ng/mL, 1 month −80° C. storage
[15] = nominal 0.500 ng/mL, 1 Day frozen (−20° C.)
[16] = nominal 0.500 ng/mL, 2 Days frozen (−20° C.)
[17] = nominal 8.00 ng/mL, 1 Day frozen (−20° C.)
[18] = nominal 8.00 ng/mL, 2 Days frozen (−20° C.)

- Long-term stability in untreated human saliva [1]: up to 1 month
- Stability in Untreated Human Saliva ([1]; at −20° C.): 1 Month
- Stability in Untreated Human Saliva ([1]; at −80° C.): 1 Month
- % Bias QC-High [1, 3]: −15.1%
- Difference from Fresh (%) QC-High [1, 3]: −13.5%
- Mean concentration QC-High [1, 3]: 679 ng/mL
- Concentration QC-High [1, 3]: 693 ng/mL and 686 ng/mL and 659 ng/mL
- % Bias QC-High [1, 4]: −15.7%
- Difference from Fresh (%) QC-High [1, 4]: −14.1%
- Mean concentration QC-High [1, 4]: 674 ng/mL
- Concentration QC-High [1, 4]: 701 ng/mL and 692 ng/mL and 630 ng/mL
- Mean at Time Zero, Fresh QCs (Batch 34), QC-High ([1]; nominal 800 ng/mL, reference for −20° C. storage): 785 ng/mL
- Mean at Time Zero, Fresh QCs (Batch 34), QC-High ([1]; nominal 800 ng/mL, reference for −80° C. storage): 785 ng/mL
- Short-term stability in cholestyramine-treated human saliva [2]: up to 2 days
- Stability in Treated Human Saliva [2]: 2 days
- % Bias QC-LLOQ [2, 5]: 0.4%
- Mean concentration QC-LLOQ [2, 5]: 5.02 ng/mL
- % Bias QC-LLOQ [2, 6]: 18.3%
- Mean concentration QC-LLOQ [2, 6]: 5.92 ng/mL
- % Bias QC-Mid [2, 7]: 2.5%
- Mean concentration QC-Mid [2, 7]: 82.0 ng/mL
- % Bias QC-Mid [2, 8]: 4.6%
- Mean concentration QC-Mid [2, 8]: 83.7 ng/mL
- % Bias QC-High [2, 9]: −14.7%
- Mean concentration QC-High [2, 9]: 683 ng/mL
- % Bias QC-High [2, 10]: −9.3%
- Mean concentration QC-High [2, 10]: 725 ng/mL
SMILES: C[C@H](CCC(=O)O)[C@H]1CC[C@H]2[C@@H]3[C@H](O)C[C@@H]4C[C@H](O)CC[C@]4(C)[C@H]3CC[C@]12C [Chenodeoxycholic Acid, Chenodeoxycholic acid]
- Concentration QC-LLOQ [2, 5]: 4.72 ng/mL and 5.20 ng/mL and 4.89 ng/mL and 5.28 ng/mL
- Concentration QC-LLOQ [2, 6]: 5.73 ng/mL and 6.15 ng/mL and 5.60 ng/mL and 6.18 ng/mL
- Concentration QC-Mid [2, 7]: 85.9 ng/mL and 84.8 ng/mL and 78.0 ng/mL and 79.2 ng/mL
- Concentration QC-Mid [2, 8]: 80.0 ng/mL and 87.1 ng/mL and 88.9 ng/mL and 78.8 ng/mL
- Concentration QC-High [2, 9]: 644 ng/mL and 699 ng/mL and 671 ng/mL and 717 ng/mL
- Concentration QC-High [2, 10]: 693 ng/mL and 777 ng/mL and 725 ng/mL and 706 ng/mL

SMILES: C[C@H](CCC(=O)O)[C@H]1CC[C@H]2[C@@H]3[C@H](O)C[C@@H]4C[C@H](O)CC[C@]4(C)[C@H]3C[C@H](O)[C@]12C [Cholic Acid, Cholic acid]
- Concentration after long-term storage [1, 11]: 72.6 ng/mL and 76.7 ng/mL and 76.0 ng/mL
- Mean concentration after long-term storage [1, 11]: 75.1 ng/mL
- Concentration after long-term storage [1, 12]: 79.6 ng/mL and 77.9 ng/mL and 77.2 ng/mL
- Mean concentration after long-term storage [1, 12]: 78.2 ng/mL
- % Bias [1, 11]: −6.1%
- Difference from Fresh (%) [1, 11]: −6.1%
- % Bias [1, 12]: −2.2%
- Difference from Fresh (%) [1, 12]: −2.2%
- Fresh QCs (Batch 34) Mean at Time Zero ([1]; reference for −20° C. Storage, nominal 80.0 ng/mL): 80.0 ng/mL
- Fresh QCs (Batch 34) Mean at Time Zero ([1]; reference for −80° C. Storage, nominal 80.0 ng/mL): 80.0 ng/mL
- % Bias ([2]; Storage period 1 Day at −20° C., QC-High, nominal 80.0 ng/mL): −6.7%
- % Bias ([2]; Storage period 1 Day at −20° C., QC-LLOQ, nominal 0.500 ng/mL): −0.9%
- % Bias ([2]; Storage period 1 Day at −20° C., QC-Mid, nominal 8.00 ng/mL): −5.9%
- Mean concentration after frozen (−20° C.) storage ([2]; Storage period 1 Day, QC-High, nominal 80.0 ng/mL): 74.7 ng/mL
- Mean concentration after frozen (−20° C.) storage ([2]; Storage period 1 Day, QC-LLOQ, nominal 0.500 ng/mL): 0.496 ng/mL
- Mean concentration after frozen (−20° C.) storage ([2]; Storage period 1 Day, QC-Mid, nominal 8.00 ng/mL): 7.53 ng/mL
- % Bias ([2]; Storage period 2 Days at −20° C., QC-High, nominal 80.0 ng/mL): −6.2%
- % Bias ([2]; Storage period 2 Days at −20° C., QC-LLOQ, nominal 0.500 ng/mL): 12.1%
- % Bias ([2]; Storage period 2 Days at −20° C., QC-Mid, nominal 8.00 ng/mL): −3.6%
- Mean concentration after frozen (−20° C.) storage ([2]; Storage period 2 Days, QC-High, nominal 80.0 ng/mL): 75.1 ng/mL
- Mean concentration after frozen (−20° C.) storage ([2]; Storage period 2 Days, QC-LLOQ, nominal 0.500 ng/mL): 0.561 ng/mL
- Mean concentration after frozen (−20° C.) storage ([2]; Storage period 2 Days, QC-Mid, nominal 8.00 ng/mL): 7.72 ng/mL

- Long-term stability in untreated human saliva [1]: up to 1 month
- Stability in Untreated Human Saliva ([1]; at −20° C.): 1 Month
- Stability in Untreated Human Saliva ([1]; at −80° C.): 1 Month
- % Bias QC-High [1, 13]: −5.9%
- Difference from Fresh (%) QC-High [1, 13]: −6.3%
- Mean concentration QC-High [1, 13]: 75.3 ng/mL
- Concentration QC-High [1, 13]: 72.8 ng/mL and 75.6 ng/mL and 77.5 ng/mL
- % Bias QC-High [1, 14]: −4.8%
- Difference from Fresh (%) QC-High [1, 14]: −5.3%
- Mean concentration QC-High [1, 14]: 76.1 ng/mL
- Concentration QC-High [1, 14]: 78.4 ng/mL and 75.9 ng/mL and 74.1 ng/mL
- Mean at Time Zero, Fresh QCs (Batch 34), QC-High ([1]; nominal 80.0 ng/mL, reference for −20° C. storage): 80.4 ng/mL
- Mean at Time Zero, Fresh QCs (Batch 34), QC-High ([1]; nominal 80.0 ng/mL, reference for −80° C. storage): 80.4 ng/mL
- Short-term stability in cholestyramine-treated human saliva [2]: up to 2 days
- Stability in Treated Human Saliva [2]: 2 days
- % Bias QC-LLOQ [2, 15]: −1.8%
- Mean concentration QC-LLOQ [2, 15]: 0.491 ng/mL
- % Bias QC-LLOQ [2, 16]: 8.5%
- Mean concentration QC-LLOQ [2, 16]: 0.542 ng/mL
- % Bias QC-Mid [2, 17]: −10.3%
- Mean concentration QC-Mid [2, 17]: 7.18 ng/mL
- % Bias QC-Mid [2, 18]: −8.3%
- Mean concentration QC-Mid [2, 18]: 7.34 ng/mL
- % Bias QC-High [2, 7]: −7.5%
- Mean concentration QC-High [2, 7]: 74.0 ng/mL
- % Bias QC-High [2, 8]: −6.7%
- Mean concentration QC-High [2, 8]: 74.7 ng/mL
SMILES: C[C@H](CCC(=O)NCC(=O)O)[C@H]1CC[C@H]2[C@@H]3[C@H](O)C[C@@H]4C[C@H](O)CC[C@]4(C)[C@H]3C[C@H](O)[C@]12C [Glycocholic Acid, Glycocholic acid]
- Concentration QC-LLOQ [2, 15]: 0.485 ng/mL and 0.474 ng/mL and 0.464 ng/mL and 0.541 ng/mL
- Concentration QC-LLOQ [2, 16]: 0.464 ng/mL and 0.541 ng/mL and 0.485 ng/mL and 0.474 ng/mL
- Concentration QC-Mid [2, 17]: 7.20 ng/mL and 7.21 ng/mL and 7.28 ng/mL and 7.01 ng/mL
- Concentration QC-Mid [2, 18]: 7.28 ng/mL and 7.01 ng/mL and 7.20 ng/mL and 7.21 ng/mL
- Concentration QC-High [2, 7]: 73.2 ng/mL and 74.9 ng/mL and 73.6 ng/mL and 74.2 ng/mL
- Concentration QC-High [2, 8]: 73.6 ng/mL and 74.2 ng/mL and 73.2 ng/mL and 74.9 ng/mL

- Short-term stability in cholestyramine-treated human saliva [2]: up to 2 days
- Stability in Treated Human Saliva [2]: 2 days
SMILES: C[C@H](CCC(=O)O)[C@H]1CC[C@H]2[C@@H]3CC[C@@H]4C[C@H](O)CC[C@]4(C)[C@H]3CC[C@]12C [Lithocholic Acid, Lithocholic acid]
